Experimental data as given in PubChem BioAssay (NCI).
“And” between values parts separate entries of the source, which are not always exact repeats. Equal values may be shown once.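 Step 1: Grow cells in 96-well plates. Step 2: Expose to compound for 48 hours at 5 concentrations. Step 3: Interpolate endpoints linearly; if unreached, use highest concentration. GI50: concentration for 50% inhibition of growth. TGI is the concentration that stops growth completely.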

How the values were obtained:
Assay in all cases: NCI-60 cell line screen, 48 h
SK-OV-3 ovarian = test system: SK-OV-3 ovarian
HOP-62 NSCLC = test system: HOP-62 NSCLC
HT29 colon = test system: HT29 colon
LOX IMVI melanoma = test system: LOX IMVI melanoma
NCI/ADR-RES ovarian = test system: NCI/ADR-RES ovarian
SNB-19 CNS = test system: SNB-19 CNS
RXF 393 renal = test system: RXF 393 renal
ACHN renal = test system: ACHN renal
MALME-3M melanoma = test system: MALME-3M melanoma
HL-60(TB) leukemia = test system: HL-60(TB) leukemia

Row | Compound | GI50 (SK-OV-3 ovarian) | TGI (SK-OV-3 ovarian) | GI50 (HOP-62 NSCLC) [µM] | TGI (HOP-62 NSCLC) [µM] | GI50 (HT29 colon) | TGI (HT29 colon) [µM] | GI50 (LOX IMVI melanoma) [µM] | TGI (LOX IMVI melanoma) [µM] | GI50 (NCI/ADR-RES ovarian) [µM] | TGI (NCI/ADR-RES ovarian) [µM] | GI50 (SNB-19 CNS) [µM] | TGI (SNB-19 CNS) [µM] | GI50 (RXF 393 renal) [µM] | TGI (RXF 393 renal) | GI50 (ACHN renal) | TGI (ACHN renal) | TGI (MALME-3M melanoma) [µM] | GI50 (MALME-3M melanoma) [µM] | GI50 (HL-60(TB) leukemia) | TGI (HL-60(TB) leukemia)
1 | O=Cc1ccc(-c2ccc(-c3nc4ccccc4s3)cc2)o1 | > 100 µM | > 100 µM | > 100 | > 100 | > 100 µM | > 100 | 60.2 | > 100 | 97.7 | > 100 | > 100 | > 100 | 62.7 | > 100 µM | > 100 µM | > 100 µM | – | – | – | –
2 | COc1ccc2c(n1)Sc1nc3ccccc3nc1N2 | – | > 100 µM | – | 79.5 | – | > 100 | – | > 100 | – | > 100 | – | > 100 | – | > 100 µM | – | > 100 µM | > 100 | – | – | –
3 | COc1cc2c3c(n(CCCN=[N+]=[N-])c(=O)c2cc1OC)-c1ccccc1C3=O | > 100 µM | > 100 µM | 3.53 | 43.1 | > 100 µM | > 100 | 1.33 | 9.14 | 4.59 | 75.2 | 52.7 | > 100 | – | – | 1.21 µM | 4.65 µM | – | – | – | –
4 | CCOc1ccc(-c2nc3ccc(-c4nc5ccc(N6CCN(C)CC6)cc5[nH]4)cc3[nH]2)cc1 | 0.379 µM and 0.478 µM | 1.84 µM and 1.86 µM | 0.456 | 1.6 | – | – | 0.188 | 0.485 | 5.4 | > 100 | 0.448 | 1.73 | – | – | 0.631 µM and 1.18 µM | 1.89 µM and 2.7 µM | 0.551 | 0.0329 | 1.2 µM and 0.162 µM | 1.23 µM
5 | COc1cccc(S(=O)(=O)NC2=NCCN2C(=S)SN2CCn3c2nsc3=S)c1 | 20.4 µM | 99.1 µM | 55.5 | > 100 | 40.2 µM | > 100 | 13.2 | 26.5 | 52.4 | > 100 | 49.8 | > 100 | 16.8 | 46.9 µM | 15.6 µM | 29.8 µM | – | – | 26.1 µM | 79.4 µM
6 | COc1ccc(-c2cnc(-c3ccc(OC)cc3)n2-c2cc(OC)c(OC)c(OC)c2)cc1 | 23.1 µM | 72.3 µM | 21.4 | 44.9 | 47.7 µM | > 100 | 34.5 | > 100 | 30.3 | > 100 | 19.8 | 60.5 | 14 | 35.9 µM | – | – | 30.6 | 13.3 | – | –
7 | COc1cc(OC)c(C(=O)/C=C/c2ccc(C#N)cc2)c(OC)c1 | 2.05 µM | > 50 µM | 1.44 | 4.24 | 1.88 µM | 8.28 | 1.37 | 5.47 | 1.4 | > 50 | 1.84 | 6.87 | 1.39 | 4.23 µM | 1.29 µM | 4.74 µM | 10.3 | 2.23 | – | –
8 | O=C(Nc1ccc(Cl)c(C(F)(F)F)c1)Nc1ccc(-c2cccnc2)cc1N1CCC(CO)CC1 | 2.22 µM | 6.59 µM | 2.02 | 5.09 | 1.92 µM | 4.02 | 1.92 | 3.66 | 2.85 | 9.11 | 3.89 | > 100 | 1.74 | 3.34 µM | 3 µM | > 100 µM | 7.36 | 2.27 | – | –
9 | Cc1[nH]c2ccccc2c1CO | 35.1 µM | > 100 µM | 28.1 | > 100 | 15.9 µM | 34.7 | – | – | 19.5 | 60.3 | 39.3 | > 100 | 20.2 | 47.6 µM | 22.8 µM | 88.8 µM | – | – | 15.8 µM | 39 µM
10 | COc1ccc(OC)c(N2CC(O)=C(c3nc4ccccc4s3)C2=N)c1 | > 100 µM | > 100 µM | > 100 | > 100 | 42.8 µM | > 100 | 45.4 | > 100 | 88.9 | > 100 | > 100 | > 100 | 95 | > 100 µM | 51.6 µM | > 100 µM | 82 | 16.4 | – | –
11 | COc1ccc(O)c(/C=N\Nc2ccccc2)c1 | – | > 100 µM | – | > 100 | – | 29.9 | – | 13 | – | > 100 | – | > 100 | – | > 100 µM | – | > 100 µM | – | – | – | 17.4 µM
12 | O=CN/C=C/c1ccccc1 | – | > 100 µM | – | > 100 | – | > 100 | – | > 100 | – | – | – | > 100 | – | > 100 µM | – | > 100 µM | > 100 | – | – | > 100 µM
13 | CCCCN(CCCC)P(=O)(Oc1ccccc1)Oc1ccccc1 | 14.9 µM | 33.6 µM | 14 | 27.7 | 4.95 µM | 21.6 | 12.9 | 26.5 | 5.23 | 18.7 | 8.82 | 23.5 | 1.85 | 5.97 µM | 5.78 µM | 19.3 µM | – | – | 4.54 µM | 18.7 µM
14 | COc1ccc2cc3c4cc(OC)c(OC)cc4ccn3c2c1 | – | > 100 µM | – | > 100 | – | > 100 | – | > 100 | – | – | – | > 100 | – | > 100 µM | – | > 100 µM | > 100 | – | – | > 100 µM
15 | CC(=O)OCC1OC(SC2=N/C(=C\c3ccc(Br)s3)C(=O)N2c2ccccc2)C(OC(C)=O)C(OC(C)=O)C1OC(C)=O (configuration not stated) | – | – | – | > 100 | > 100 µM and 28.6 µM | > 100 | – | > 100 | – | > 100 | – | > 100 | – | 57.2 µM and > 100 µM | – | > 100 µM | > 100 | – | 8.5 µM and 3.83 µM | > 100 µM and 21.4 µM
16 | O=S1Nc2cccc(C(F)(F)F)c2S1 (configuration not stated) | – | > 100 µM | – | > 100 | – | > 100 | – | 74.1 | – | – | – | > 100 | – | 73.7 µM | – | > 100 µM | > 100 | – | – | 31.8 µM
17 | N#Cc1c(N)nc2c(c1-c1ccc(Cl)cc1)COc1ccc(F)cc1-2 | > 100 µM | > 100 µM | 25.1 | 75.2 | 39.4 µM | > 100 | 18.4 | 40.2 | 22.9 | 54.6 | – | – | 20.3 | > 100 µM | 15.9 µM | 52.1 µM | 81.7 | 40.3 | 26.5 µM | 53.4 µM
